In one series the test system is RS4;11 cells. The series is described as follows: Inhibitory effect on proliferation of RS4;11 cells (CCK-8). The following applies: Homo sapiens, RS4-11, 72 h. In kind it is cell-based, human. The gist of the method: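 RS4;11 cells were seeded at 1×10^5 cells/mL in RPMI with 5% FBS and incubated 24 h at 37° C, 5% CO2 before compound addition in duplicate. Inhibition was calculated against untreated and blank controls. IC50 came from a four-parameter fit of log concentration versus inhibition.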

The nature of series [1]: Pharmacokinetics in beagle dogs. In kind it is in vivo. The following applies: male, dog, plasma, po, intragastric 2.5 mg/kg. As for the experimental part: 4.2 Pharmacokinetics in Beagle Dogs
3 male beagle dogs weighing 9-12 kg were intragastrically administered with the test compounds at a dosage of 2.5 mg/kg after adaptive feeding for a period of time.
The animals to be tested (male beagle dogs) were fasted for 12 h before administration and fed 4 h after administration, and water was freely drunk before, after and during the experiment.
After intragastric administration, about 0.5 mL of blood was collected from forelimb vein at 0.25 h (15 min), 0.5 h (30 min), 1 h, 1.5 h, 2 h, 4 h, 6 h, 8 h, 10 h, 24 h, 30 h, 48 h and 72 h, and placed in an EDTA-K2 anticoagulation tube. Blood samples were transferred to a centrifuge within 30 min, and centrifuged at 4000 rpm for 10 min at 4° C. to separate the plasma. All plasma samples were collected and immediately stored at −20° C. for testing.
50 μL of the plasma sample to be tested was added with 300 μL of acetonitrile solution containing an internal standard (20 ng/mL diazepam), shaken and mixed well for 5 min, and centrifuged at 13,000 rpm for 10 min. 75 μL of supernatant was taken and diluted with 75 μL of ultrapure water. After being mixed well, 1 μL of the resulting sample was taken for LC/MS/MS determination, and a chromatogram was recorded.
Oral exposure of the compounds disclosed herein was evaluated by in vivo pharmacokinetic experiments in beagle dogs.

In turn, `CC1(C)CCC(CN2CCN(c3ccc(C(=O)NS(=O)(=O)c4ccc(NCC5CCOCC5)c([N+](=O)[O-])c4)c(Oc4cnc5[nH]ccc5c4)c3)CC2)=C(c2ccc(C(F)(F)F)cc2Cl)C1` [Compound 1-1, 4-(4-{[2-(2-chloro-4-trifluoromethylphenyl)-4,4-dimethylcyclohex-1-enyl]methyl}-piperazin-1-yl)-N-({3-nitro-4-[(tetrahydro-2H-pyran-4-ylmethyl)amino]phenyl}sulfonyl)-2-(1H-pyrrolo[2,3-b]pyridin-5-yloxy)-benzamide] had an IC50 in the series with RS4;11 cells of 2.3 nM.

For `CC1(C)CCC(CN2CCN(c3ccc(C(=O)NS(=O)(=O)c4ccc(NC[C@H]5COCCO5)c([N+](=O)[O-])c4)c(Oc4cnc5[nH]ccc5c4)c3)CC2)=C(c2ccc(C(F)(F)F)cc2Cl)C1` [Compound 8-1], in series [1], the AUC(0-inf) was found to be 27700 ± 14200 ng·h/mL, the peak level (Cmax) was 1430 ± 769 ng/mL, the MRT last amounted to 17.2 ± 1.62 h and the Tmax came to 3.33 ± 1.16 h. For the same molecule, in series [1] (read-out: AUC0-72 h), the AUC(0-t) was determined as 26300 ± 13600 ng·h/mL. Further, the half-life in series [1] (read-out: T½ (converted)) was 1170 ± 98.4 min.

For orientation: IC50 means the point on the concentration scale where inhibition reaches its midpoint. Higher therefore signals lower potency. The term AUC(0-inf) denotes the area under the concentration-time curve extrapolated to infinity. A word on the Cmax: it is the maximum level reached in the sampled fluid or tissue. The term MRT last denotes the average time that molecules of a dose stay in the body. Usually Tmax stands for the time at which the peak concentration occurs.

The values above are taken from patent US20250257064A1, “TRIFLUOROMETHYL-SUBSTITUTED SULFONAMIDE AS BCL-2-SELECTIVE INHIBITOR” (Chia Tai Tianqing Pharmaceutical Group Co., Ltd., priority 2018, published 2025).
